Measured values as given in PMC5391289 (Nature chemical biology, 2017).
Ends that are not written are not given here.

How the values were obtained:
Bacillus subtilis 168 = assay: Broth microdilution antimicrobial assay; type: cell-based; conditions: Mueller-Hinton broth, 100 µM to 49 nM, 37 °C, 18 h, at least 2 replicates
E. coli MC4100 = assay: Broth microdilution antimicrobial assay; type: cell-based, Escherichia coli; conditions: Mueller-Hinton broth, 100 µM to 49 nM, 37 °C, 18 h, at least 2 replicates
[1] = system: Mycobacterium smegmatis NRRL B-14616; assay: Broth microdilution antimicrobial assay; type: cell-based; conditions: Mueller-Hinton broth, 100 µM to 49 nM, 37 °C, 24 h, at least 2 replicates
[2] = system: Bacillus anthracis Sterne; type: cell-based
[3] = system: Enterococcus faecium U503 (VRE); assay: Broth microdilution antimicrobial assay; type: cell-based; conditions: Mueller-Hinton broth, 100 µM to 49 nM, 37 °C, 18 h, at least 2 replicates
panel of bacteria = assay: Broth microdilution antimicrobial assay; type: cell-based; conditions: all organisms tested, 100 µM to 49 nM compound, 37 °C, no visible growth after 18 h (24 h M. smegmatis), at least 2 replicates

Row | Sequence | growth-suppressive activity (Bacillus subtilis 168) | growth-suppressive activity (E. coli MC4100) | growth-suppressive activity (panel of bacteria) | other results
1 | GFIGWGNDIFGHYSGG (also: lariat or depsi (positions not given here)) [anantin B2] | moderately active | weak activity | – | –
2 | GFIGWGNDIFGHYSGGF (also: lariat or depsi (positions not given here)) [anantin B1] | – | weak activity | – | –
3 | GRPNWGFENDWSCVRVC (also: bicyclic or more (positions not given here)) [LP2006] | active | – | – | growth-suppressive activity [1]: active; growth-suppressive activity [2]: active; growth-suppressive activity [3]: active
4 | LAGQGSPDLLGGHSLL (also: lariat or depsi (positions not given here)) [lagmysin] | – | – | lacked growth suppressive activity towards all organisms tested | –
5 | LLGLAGNDRLVLSKN (also: lariat or depsi (positions not given here)) [Citrulassin A] | – | – | lacked growth suppressive activity towards all organisms tested | –
6 | SYHWGDYHDWHHGWYGWWDD (also: lariat or depsi (positions not given here)) [moomysin] | – | – | lacked growth suppressive activity towards all organisms tested | –
